Laboratory results from the C3SDB collision cross section collection.

Conditions: instrument: TW, calibrated with polyalanine and drug standards

Row | Structure (SMILES) | collision cross section (N2) ([M+H]+) | other results
1 | CC(C)CC(NC(=O)OCC1c2ccccc2-c2ccccc21)C(=O)O (stereo in doubt) [N- (9-FLUORENYLMETHOXYCARBONYL)-L-LEUCINE] |  | collision cross section (N2) ([M+Na]+): 183.3 Å²
2 | COc1cc(OC)cc(OC)c1 [1,3,5-TRIMETHOXYBENZENE] | 130.6 Å² | 
3 | CC1(C)C2CC(=O)[C@]3(C)C(CC[C@@]4(C)[C@H](c5ccoc5)OC(=O)C5OC543)[C@@]2(C)[C@@H](O)C[C@H]1O (stereo partly specified) [1,3-DIDEACETYL-7-DEACETOXY-7-OXOKHIVORIN] | 200.2 Å² | 
4 | COc1cc(O)c(C(=O)/C=C/c2ccc(OC)c(O)c2)c(OC)c1 [2',3-DIHYDROXY-4,4',6'-TRIMETHOXYCHALCONE] | 177.1 Å² | 
5 | COc1ccc(/C=C/C(=O)c2ccc(O)cc2O)cc1 [2',4'-DIHYDROXY-4-METHOXYCHALCONE] | 162.2 Å² | 
6 | O=C(/C=C/c1ccc(O)cc1)c1ccccc1O [2',4-DIHYDROXYCHALCONE] | 153 Å² | 
7 | COc1ccc(/C=C/C(=O)c2cc(O)ccc2O)cc1 [2',5'-DIHYDROXY-4-METHOXYCHALCONE] | 162.1 Å² | 
8 | COc1ccc(-c2coc3cc(O)ccc3c2=O)c(OC)c1 [2'-METHOXYFORMONETIN] | 164.6 Å² | 
9 | COc1ccc(C(=O)c2ccc(O)cc2)c(O)c1O [2,3,4'-TRIHYDROXY-4-METHOXYBENZOPHENONE] | 152.9 Å² | 
10 | CCOc1ccc(C(=O)c2ccc(O)c(O)c2O)cc1 [2,3,4-TRIHYDROXY-4'-ETHOXYBENZOPHENONE] | 160.4 Å² | 
11 | COc1cc(O)c(C)c(O)c1 [2,6-DIHYDROXY-4-METHOXYTOLUENE] | 127.1 Å² | 
12 | COc1cc(OC)c2c(=O)c(-c3ccccc3)c(C)oc2c1OC [2-METHYL-5,7,8-TRIMETHOXYISOFLAVONE] | 173.6 Å² | 
13 | COc1ccc(-c2oc3cc(OC)c(OC)c(OC)c3c(=O)c2OC)cc1 [3,4',5,6,7-PENTAMETHOXYFLAVONE] | 181.9 Å² | 
14 | COc1ccc(-c2oc3ccccc3c(=O)c2OC)cc1 [3,4'-DIMETHOXYFLAVONE] | 159.1 Å² | 
15 | COc1ccc2oc(-c3ccccc3)c(OC)c(=O)c2c1 [3,6-DIMETHOXYFLAVONE] | 159.9 Å² | 
16 | COC(=O)C[C@H]1C(C)(C)[C@@H](O)[C@@H]2CC3=C4CC(O)O[C@@H](c5ccoc5)[C@]4(C)CCC3[C@@]1(C)C2=O (stereo partly drawn) [3,16-DIDEOXYMEXICANOLIDE-3beta-DIOL] |  | collision cross section (N2) ([M+Na]+): 202.8 Å²
17 | CC(=O)O[C@H]1CC[C@@]2(C)C(C[C@@H](OC(C)=O)[C@@]3(C)C4=CC(=O)O[C@@H](c5ccoc5)[C@]4(C)CCC23)C1(C)C (stereo partly drawn) [3-DEOXO-3beta-ACETOXYDEOXYDIHYDROGEDUNIN] | 219.7 Å² | 
18 | COc1cccc(O)c1O [3-METHOXYCATECHOL] | 124.7 Å² | 
19 | S=c1ccss1 [3H-1,2-DITHIOLE-3-THIONE] | 120.4 Å² | 
20 | CC(=O)O[C@@H]1CC[C@@]2(C)C(C[C@@H](OC(C)=O)[C@@]3(C)C4=CC(=O)O[C@@H](c5ccoc5)[C@]4(C)CCC23)C1(C)C (stereo partly drawn) [3alpha-ACETOXYDIHYDRODEOXYGEDUNIN] | 218 Å² | 
21 | CC(=O)O[C@H]1CC[C@@]2(C)C(C[C@@H](OC(C)=O)[C@]3(C)C2CC[C@@]2(C)[C@H](c4ccoc4)OC(=O)[C@H]4O[C@]423)C1(C)C (stereo partly drawn) [3beta-ACETOXYDEOXODIHYDROGEDUNIN] | 219.2 Å² | 
22 | COc1ccc(C(=O)/C=C/c2ccccc2)cc1 [4'-METHOXYCHALCONE] | 153.8 Å² | 
23 | Cc1c(O)c(=O)n(-c2ccccc2)n1C [4-HYDROXYANTIPYRINE] | 141.4 Å² | 
24 | COc1ccc(-c2coc3cc(OC)ccc3c2=O)cc1 [7,4'-DIMETHOXYISOFLAVONE] | 160.3 Å² | 
25 | COc1ccc2c(c1)OC1(O)COc3cc(OC)c(OC)cc3C1=C2 (stereo unspecified) [12a-HYDROXY-5-DEOXYDEHYDROMUNDUSERONE] |  | collision cross section (N2) ([M+H-H2O]+): 173 Å²
26 | COc1ccc(-c2cc(=O)c3c(OC(C)=O)cc(OC(C)=O)cc3o2)cc1 [ACACETIN DIACETATE] | 184.8 Å² | 
27 | CC(=O)OC1CN2CCC1CC2 (stereo unspecified) [ACECLIDINE] | 136.2 Å² | 
28 | CC(=O)Nc1ccc(S(=O)(=O)c2ccc(NC(C)=O)cc2)cc1 [ACEDAPSONE] | 171.2 Å² | 
29 | CC(=O)c1ccc(S(=O)(=O)NC(=O)NC2CCCCC2)cc1 [ACETOHEXAMIDE] | 178.2 Å² | 
30 | Nc1nc(=O)c2ncn(COCCO)c2[nH]1 [ACYCLOVIR] | 146.5 Å² | 

Further lines, with some results ahead:

Row | collision cross section (N2) ([M+H]+) | Structure (SMILES) | other results
31 | 200.6 Å² | O=C(/C=C/c1ccccc1)c1ccc(O[C@@H]2O[C@H](CO)[C@@H](O)[C@H](O)[C@H]2O)cc1O [2',4'-DIHYDROXYCHALCONE 4'-GLUCOSIDE] | 
32 | 215.9 Å² | CC(=O)O[C@H]1C[C@@H](O)C(C)(C)C2C[C@@H](OC(C)=O)[C@]3(C)C(CC[C@@]4(C)[C@H](c5ccoc5)OC(=O)C5OC543)[C@]21C (stereo partly specified) [3-DEACETYLKHIVORIN] | 
33 | 204.1 Å² | C=C1[C@H]2CC[C@@]3(C)[C@H](c4ccoc4)OC(=O)C[C@]13O[C@H]1C[C@H](O)C(C)(C)[C@H](CC(=O)OC)[C@]12C [3-DEOXY-3beta-HYDROXYANGOLENSIC ACID METHYL ESTER] | 
34 | 146.1 Å² | CC1(C)CC23C(=O)CCC(O)C2(C)CCC13 (stereo unspecified) [3-NOR-3-OXOPANASINSAN-6-OL] | 
35 | 207.1 Å² | CC(=O)O[C@@H]1CC2C(C)(CC[C@H](O)C2(C)C)C2CC[C@]3(C)C(=CC(=O)O[C@H]3c3ccoc3)C21C (stereo partly drawn) [3beta-HYDROXYDEOXODIHYDRODEOXYGEDUNIN] | 
36 | 182 Å² | COc1ccc(-c2cc(=O)c3c(O)cc(OC)c(OC)c3o2)c(OC)c1 [5-HYDROXY-2',4',7,8-TETRAMETHOXYFLAVONE] | 
37 | 158.6 Å² | Cn1c(=O)c2[nH]c(C3CCCC3)nc2n(C)c1=O [8-CYCLOPENTYLTHEOPHYLLINE] | 
38 | 208.8 Å² | COC(=O)C[C@H]1C(C)(C)C2(O)OC34CC2C(=O)[C@]1(C)C3CC[C@]1(C)C4=CC(=O)O[C@H]1c1ccoc1 (stereo partly drawn) [8beta-HYDROXYCARAPIN, 3,8-HEMIACETAL] | 
39 | 187 Å² | CC[C@@]1(O)C(=O)OCc2c1cc1n(c2=O)Cc2cc3cc(O)ccc3nc2-1 [10-HYDROXYCAMPTOTHECIN] | 
40 | 152.3 Å² | CC(=O)N[C@@H](Cc1c[nH]c2ccccc12)C(=O)O [ACETYLTRYPTOPHAN] | 
41 | 167.6 Å² | Nc1ncnc2c1ncn2[C@@H]1O[C@H](COP(=O)(O)O)[C@@H](O)[C@H]1O [ADENOSINE PHOSPHATE] | 
